Results reported in US4416892A, “Method of treating hypersensitivity disease with benzoxazole derivatives” (Lilly Industries Limited, priority 1981, dated 1983).

test system: SRS-A release; experiment: guinea-pig chopped lung test (inhibition of SRS-A / mediator release); format: cell-based; conditions: Cavia porcellus, 0.25 h; 3×10^-5 M; ovalbumin-sensitised guinea pig lung, antigen challenge, 37° C., 15 mins; mean of four samples
Protocol: These tests are well-recognised as indicative of anti-allergy activity in humans and mammals in general. Compounds were tested in the guinea pig chopped lung test referred to above. […] Male albino guinea pigs (250-350 g) were sensitised with ovalbumin (100 mg s/c+100 mg i p.) and three weeks later killed, their lungs removed and perfused clear of blood with Tyrode's solution. The lungs were chopped into 0.5 mm cubes and divided into 400 mg aliquots. After washing and equilibration at 37° C., the aliquots were challenged with antigen in the presence or absence of the test compound. One control group was not challenged and was used to assess non-anaphylactic SRS-A release. Following incubation with rocking at 37° C. for 15 mins, each supernatant was removed and bio-assayed. Results are expressed as the percentage inhibition of SRS-A release after exposure to 3×10^-5M solutions of test compound. Each result is the mean of four samples.

First: CC(C(=O)O)c1ccc2nc(-c3ccccc3Cl)oc2c1 (stereo not drawn) [2-(2-chlorophenyl)-α-methyl-6-benzoxazoleacetic acid]
Second: CC(C(=O)O)c1ccc2nc(-c3ccc(Cl)cc3)oc2c1 (stereo not drawn) [2-(4-chlorophenyl)-α-methyl-6-benzoxazoleacetic acid]
The inhibition at 30 µM of the first is lower: 16% for the first, 38% for the second.

First: CC(C(=O)O)c1ccc2oc(-c3cccc(C(F)(F)F)c3)nc2c1 (stereo not drawn) [2-(3-trifluoromethylphenyl)-α-methyl-5-benzoxazoleacetic acid]
Second: CC(C(=O)O)c1ccc2oc(-c3ccc(F)cc3)nc2c1 (stereo not drawn) [2-(4-fluorophenyl)-α-methyl-5-benzoxazoleacetic acid]
The inhibition at 30 µM of the first is lower: 27% for the first, 36% for the second.

Molecule `CC(C(=O)O)c1ccc2oc(-c3ccc(Cl)cc3)nc2c1` (stereo not drawn) [2-(4-chlorophenyl)-α-methyl-5-benzoxazoleacetic acid] has an inhibition at 30 µM of 62%.

test system: allergic bronchospasm; experiment: Herxheimer test (allergic bronchospasm in sensitised guinea pigs); format: in vivo, guinea pig; conditions: dose 50 (first column; head is a drawing), oral, 4 hours before ovalbumin challenge, mepyramine 0.5 mg/kg s.c.; ratio of 1.4 or greater significant
Protocol: Male guinea pigs were sensitised with ovalbumin and then exposed to ovalbumin aerosol (1% w/v solution) in an observation chamber. The animals were kept in the exposure chamber until symptoms of respiratory distress, terminating in a characteristic convulsive cough. The time of exposure is the "collapse time". […] Accordingly, the response to each compound in the presence of mepyramine (0.5 mg/kg s.c.) given half an hour before challenge was studied. The compound itself was given orally four hours before antigen challenge. A protection ratio of 1.4 or greater is considered significant.

Molecule `CC(C(=O)O)c1ccc2oc(-c3ccc(Cl)cc3)nc2c1` (stereo not drawn) [2-(4-chlorophenyl)-α-methyl-5-benzoxazoleacetic acid] has a protection ratio of 2.7.
